{"source": "patent US12251434B2", "about": "(priority 2021, dated 2025)", "system": "hyaluronic acid", "format": "cell-based"}
{"substance": "4-Methylumbelliferone [4-MU]", "values": [{"measurement": "Hyaluronic acid with 4-MU, HIS-SARS-CoV-2-3 overexpressed", "value": "30.02 ± 2.00", "unit": "ng/mL"}, {"measurement": "Hyaluronic acid with 4-MU, HIS-SARS-CoV-2-4 overexpressed", "value": "19.76 ± 11.3", "unit": "ng/mL"}]}
